Where two headings read alike, the source gives them in different places. Each block holds one molecule with its values, some of them ahead of it.
Columns and labels:
[1] = test system: CQ-resistant P. falciparum; conditions: cited from earlier work
[2] = Blood pharmacokinetics after oral dosing (fluorescence HPLC, noncompartmental WinNonlin model); format: in vivo, human; conditions: for metabolite/parent ratio in blood at the Cmax of the parent drug: 600 mg dose, AQ-72/AQ-13 (mean) or MDCQ/CQ; for time to appearance of metabolite in the blood: after oral 600 or 700 mg AQ-13 or 600 mg CQ; for AUC: read-out: AUCτ of metabolite; for MRT: read-out: MRT of metabolite (converted); for half-life: read-out: t1/2 of metabolite (converted); for Cmax: median, read-out: Cmax of metabolite
Procedure: Study drugs were administered in the GCRC on an empty stomach between 8 and 9 AM the morning after admission (after fasting for ≥ 10 h).

[3] = Urinary excretion and renal clearance (24-hour urine collections, days 1-3); conditions: for mono-dealkylated metabolite/parent ratio in urine: AQ-72/AQ-13 and MDCQ/CQ
[4] = human, whole blood, oral, 1750 mg, after 1,750 mg AQ-13 over 3 d, median (range)
[5] = human, whole blood, oral, after 700 mg AQ-13, median (range)
[6] = human, whole blood, po, 600 mg, after 600 mg oral dose of parent drug (CQ or AQ-13), whole blood, median (range)
[7] = human, whole blood, after 600 mg oral dose of parent drug, median (range)
[8] = human, whole blood, after 600 mg oral dose of parent drug
[9] = human, whole blood, oral, 1500 mg, after 1,500 mg CQ over 3 d, median (range)

time after drug administration at which metabolite/parent ratio reached 1.0 ([2]; 600 mg AQ-13, AQ-72/AQ-13 ratio): 3 to 6 days
metabolite/parent ratio in blood at the Cmax of the parent drug [2]: 0.37
time to appearance of metabolite in the blood [2]: ≤ 1 h
AUC ([2]; human, whole blood, oral, 700 mg, after 700 mg AQ-13, median (range)): 262 µM·h
AUC [2, 4]: 440 µM·h
MRT [2, 4]: 17.4 days
half-life [2, 4]: 10.5 days
Tmax ([2]; human, whole blood, oral, after 600 mg AQ-13, median, read-out: Tmax of metabolite): 0.625 days
MRT [2, 5]: 18.6 days
half-life [2, 5]: 12.3 days
AUC [2, 6]: 211 µM·h
MRT [2, 7]: 16.6 days
half-life [2, 7]: 11.1 days
Cmax [2, 8]: 590 nM
mono-dealkylated metabolite/parent ratio in urine ([3]; days 1-3): 23.6%
Compound: CCNCCCNc1ccnc2cc(Cl)ccc12 [AQ-72]
activity of major metabolite against CQ-resistant parasites [1]: not active against CQ-resistant parasites

time after dosing at which metabolite/parent ratio reached 1.0 ([2]; 600 mg CQ, MDCQ/CQ ratio): 2–3 wk
metabolite/parent ratio in blood at the Cmax of the parent drug [2]: 0.26
time to appearance of metabolite in the blood [2]: ≤ 1 h
AUC [2, 9]: 330 µM·h
MRT [2, 9]: 29 days
half-life [2, 9]: 21.8 days
AUC [2, 6]: 205 µM·h
MRT [2, 7]: 44.8 days
half-life [2, 7]: 31.2 days
Cmax [2, 8]: 540 nM
mono-dealkylated metabolite/parent ratio in urine ([3]; days 1-3): 22.7%
Compound: CCNCCCC(C)Nc1ccnc2cc(Cl)ccc12 (stereo not drawn) [MDCQ, mono-desethylchloroquine]

detection of di-dealkylated metabolite in the blood ([2]; after oral AQ-13 or CQ): not detected in the blood
second (di-dealkylated) metabolite/parent ratio in urine ([3]; days 1-3, AQ-73/AQ-13 and BDCQ/CQ): 5.2%
detection of di-dealkylated metabolite in urine ([3]; urine collections days 1-3 after dosing): identified in urine collections
Compound: NCCCNc1ccnc2cc(Cl)ccc12 [AQ-73]

From paper PMC1764434 (PLoS Clinical Trials, 2007)
